Assay results from ChEMBL document CHEMBL3352524, “Identification of arylsulfonamides as ExoU inhibitors” (Bioorg Med Chem Lett, 2014).

Assays:
[1] = Toxicity against Saccharomyces cerevisiae 14328 assessed as cell viability at 5 uM after 48 hrs; assay type: organism-based; conditions: Saccharomyces cerevisiae 14328 cells, read-out: Activity
Pseudomonas aeruginosa = test: Inhibition of Pseudomonas aeruginosa ExoU expressed in Saccharomyces cerevisiae 14328 harboring pdr1/pdr3 genes assessed as cell death measured as yeast growth recovery at 5 uM after 48 hrs by copper-inducible promoter CUP1 assay; design: scale not given: the % may be the effect or the level left
[2] = Cytotoxicity against HEK293T cells assessed as cell viability at 5 uM after 48 hrs; assay type: cell-based, HEK-293T; conditions: human, read-out: Activity

| Structure (SMILES) | viability at 48 h, 5 µM [1] [%] | Activity (Pseudomonas aeruginosa) [%] | viability at 48 h, 5 µM [2] [%] |
| --- | --- | --- | --- |
| NC(=O)c1cccc2c1-c1ccccc1C2 | > 90 | 84.7 | > 90 |
| O=S(=O)(Nc1ccc2c(c1)OCCO2)c1ccc2ccccc2c1 | > 90 | 36.6 | 87.5 |
| CCCc1ccc(OCCNS(=O)(=O)c2c(C)cc(C)cc2C)cc1 | 85.2 | 30.6 | 72.3 |
| O=S(=O)(Nc1cccc2ccccc12)c1ccc(C(F)(F)F)cc1 | > 90 | 45.4 | > 90 |
| Cc1cc(C)c(S(=O)(=O)NCCOc2ccccc2)c(C)c1 | > 90 | 23.7 | – |
| O=S(=O)(Nc1ccc2c(c1)OCCO2)c1ccc(C(F)(F)F)cc1 | > 90 | 27.6 | – |
| COc1ccc(NS(=O)(=O)c2c(C)cc(C)cc2C)cc1OC | > 90 | 18.5 | – |
| Cc1cc(C)c(S(=O)(=O)Nc2ccc3c(c2)OCCO3)c(C)c1 | > 90 | 60.2 | > 90 |
| CC(C)(C)c1ccc(S(=O)(=O)Nc2ccc3c(c2)OCCO3)cc1 | > 90 | 52.2 | 87.7 |
| Cc1cc(C)c(NS(=O)(=O)c2ccc3c(c2)OCCO3)c(C)c1 | 89.1 | 21 | – |
| CCCCCc1ccc(S(=O)(=O)Nc2ccc3c(c2)OCCO3)cc1 | > 90 | 9 | – |
